Data set [1] concerns rats pretreated with scopolamine. The arrangement: method as in PMID 30089885. The settings on record: 0.1 mg/kg; cited from earlier work.
For data set [2], the system named is CaMKIIα‐tTA/A53T α‐syn dTg mice. In words: Y‐maze task. The class given is in vivo, mouse. The settings on record: 1 mg/kg p.o. (P = .12). On the procedure: The Y‐maze was fabricated from gray plastic and consisted of three arms (40 cm long, 12 cm high, 3 cm wide at the bottom, and 10 cm wide at the top) with an angle of 120°. Visual cues were placed outside each arm, and the apparatus was illuminated at 10 lux. […] An arm entry was defined as all four paws of the mouse being in the arm, and the sequence of arm entries was monitored with a video camera and counted manually. An alternation was defined as successive entries into the three arms on overlapping triplet sets.36 The percentage of alternation was calculated as the ratio of actual to possible alternations (total number of arm entries minus 2) multiplied by 100.

The next data set concerns SD rats. Conditions: rats, donepezil 0.1 mg/kg p.o. alone; combination study; rats with effect/total. On the procedure: Seven‐ or 8‐week‐old SD rats were individually placed into observation cages. After an acclimation period of at least 1 hour, a test compound was administered to the rats. […] Cholinergic side effects, including diarrhea, lacrimation, salivation, miosis, and fasciculation, were assessed blindly, as described previously,27 and convulsion was scored using a modified Racine scale,37 as follows: stage 0, normal; stage 1, immobility; stage 2, forelimb and/or tail extension and rigid posture; stage 3, repetitive movements, head nodding, and gnawing; stage 4, rearing and falling; stage 5, continuous rearing and falling; stage 6, severe tonic‐clonic seizure with loss of postural control; and stage 7, death in the first 2 hours.

Data set [3] deals with M1R. Also on record: method as in PMID 30089885. The settings on record: at concentrations required for procognitive efficacy; cited from earlier work.
The test system of the next data set is rats. Also on record: method as in PMID 30089885. Conditions: cited from earlier work.
In data set [4] the test system is M1R. Also on record: method as in PMID 30089885. The settings on record: cited from earlier work.

This is an account of results in publication PMC6986443, “T‐495, a novel low cooperative M1 receptor positive allosteric modulator, improves memory deficits associated with cholinergic dysfunction and is characterized by low gastrointestinal side effect risk” (Pharmacology Research & Perspectives, 2020).

For `COc1cc2c(cc1OC)C(=O)C(CC1CCN(Cc3ccccc3)CC1)C2` (stereo not drawn) [donepezil, reference compound], in data set [1], the “scopolamine‐induced NDI reduction, retention trial” value is “subeffective”. Besides, in data set [2], the “reduced percentage of alternations” value is given as “tended to reverse”. Further, in the data set on SD rats, the Convulsion is on record as 0/6; the Fasciculation was 0/6; the Lacrimation was 0/6; the “Loose, mucous stool, or diarrhea” value is 0/6. For the same compound, in the data set on SD rats, the Myosis is 0/6 and the Salivation is given as 0/6.

As to `Cc1c(Cc2ccc(-n3cccn3)cc2)cc2c(c1F)CN([C@H]1COCC[C@@H]1O)C2=O` [TAK‐071], the “inhibition of the binding of scopolamine to M1R” value with M1R [3] was “did not inhibit”. Moreover, the “scopolamine‐induced cognitive impairment, combination with an AChEI” value in the data set with rats is listed as “synergistically improved”. In the data set on rats (rats), the “difference between doses improving cognitive function and doses inducing diarrhea” value is given as 33 fold. In addition, in the data set with M1R [4], the “α‐value (cooperativity)” value is recorded as 199.
